Measured values: patent US10253081B2, “Glucagon analogues” (Zealand Pharma A/S, priority 2012, dated 2019)
Read-outs that look alike come from different tables or passages of the source. *1 amine or outer side, *2 acyl side, *3 side chain or, on linkers, in order; H or OH if unused. Where a SMILES comes first, the peptide text is derived from it. Side-chain parts run from the residue outwards. The star is where a group is joined. γGlu = O=C(O)[C@H](CCC(=O)[*:2])N[*:1]; Palmitoyl = CCCCCCCCCCCCCCCC(=O)*

Tests used:
[1] = target: T1, endogenous glucagon receptor (Rattus norvegicus, UniProt P30082); test: Agonistic activity on endogenous glucagon receptor (glycogen synthesis rate in primary rat hepatocytes); type: cell-based; settings: inhibition of glycogen synthesis rate, 3 hours, read-out: EC50 GLP-1R Rat hepat.
T1 construct: Agonistic activity of the test compounds on endogenous glucagon receptor; endogenous in cells; host or cells: primary rat hepatocytes
Outline: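 Primary rat hepatocytes (40,000 cells/well, cultured 24 h) incubated 3 h with compound in KRBH buffer with 0.1% BSA, 22.5 mM glucose and D-[U14C]glucose. 14C incorporated into precipitated glycogen counted, background-subtracted and expressed as % of 0.1% DMSO vehicle (100% CTL). pEC50 from cpm versus log concentration; agonism lowers glycogen synthesis.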

[2] = Sub-chronic effects on adiposity/body weight in diet-induced obese mice; type: in vivo, C57BL/6J mice; settings: DIO mice, 5 nmol/kg s.c. twice daily for 31 days
Description: Male C57BL/6J mice (Taconic A/S, Denmark) at an age of 5 weeks were maintained on a 12:12 hour light-dark cycle on a high-fat diet (60% of total energy from fat, D12492, Research Diet Inc.) for 20 weeks. All mice (housed 2 per cage) were then mock-treated for a week to acclimatize the animals to handling and injections. Subsequently, the mice were stratified according to body fat mass (measured by magnetic resonance technique) and body weight into 9 groups (n=9-12). Animals were thereafter treated twice daily with subcutaneous injections (5 ml/kg) of vehicle (25 mM phosphate buffer, pH 7.4) or test substances (5 nmol/kg per administration, in equivalent amount of vehicle) for a total of 31 days. The daily injections were given at the start and at the end of the light phase. Body weight, food and water intake were determined daily throughout the study. The data are presented in Table 6 as mean body weight change±S.E.M. S.E.M. is defined as standard error of the mean and was calculated using the formula: S.E.M.=SD/square root (n), where SD is the standard deviation and n the number of observations (in this case animals/group).
Statistical analyses were performed using Graph Pad Prism version 5. The measured parameters were compared using one-way ANOVA followed by Dunnett's multiple comparison test. Differences were considered statistically significant at p<0.05.

[3] = Pharmacokinetic parameters after subcutaneous and intravenous administration to mice; type: in vivo; settings: male, mouse, plasma, 20 nmol/kg, C57Bl/6J mice; for half-life: read-out: Terminal half life (converted); for MRT: read-out: Mean Residence Time
Description: Pharmacokinetic parameters of the test compounds were determined after subcutaneous and intravenous administration to C57Bl/6J mice.
8 week old male C57Bl/6J mice were obtained from Taconic (Denmark) weighing approximately 20-25 g at time of arrival at the test facility. The mice were caged in European standard cages type III with light cycle of 12-hour dark and 12-hour light (lights on 06.00). Both diet, Altromin 1324 (Altromin, Germany), and water was administered ad libitum during the whole experimental period. The 8-11 week animals were imported to the laboratory at least 7 days before the start up of the experimental procedure in order to assure proper acclimatization. After sampling the mice were euthanized by cervical dislocation.
The compounds were first dissolved in 0.096% aqueous ammonia to a nominal concentration of 2 mg/ml, and then diluted to the desired dosing strength (4 μM) in sterile PBS containing 25 mM phosphate buffer, pH 7.4. Subcutaneous and intravenous injections corresponding to 20 nmol/kg were given. The GLP-1-glucagon dual agonists were administered for subcutaneous dosing in the neck region and via a lateral tail vein for intravenous dosing.
Blood samples (250 μl) were collected from the periorbital plexus at time points 0.5, 2, 4, 6, 12, 16, 20, 24 h for subcutaneous and 10, 30 min, 3, 6, 12, 18, 24 h for intravenous administration into ice-chilled K3EDTA tubes and centrifuged for 5 minutes at 4° C. within 20 minutes of sampling. Plasma (>100 μl) was separated to ice-chilled Micronic tubes, immediately frozen, and kept at −70° C. until analysed for plasma concentration for the respective GLP-1-glucagon compound using LC-MS/MS. Individual plasma concentration-time profiles were analysed by a non-compartmental approach in WinNonLin v6.3 (Pharsight inc, Mountain View, Calif., USA), and the resulting pharmacokinetic parameters determined.

T1 sequence (P30082 27-485): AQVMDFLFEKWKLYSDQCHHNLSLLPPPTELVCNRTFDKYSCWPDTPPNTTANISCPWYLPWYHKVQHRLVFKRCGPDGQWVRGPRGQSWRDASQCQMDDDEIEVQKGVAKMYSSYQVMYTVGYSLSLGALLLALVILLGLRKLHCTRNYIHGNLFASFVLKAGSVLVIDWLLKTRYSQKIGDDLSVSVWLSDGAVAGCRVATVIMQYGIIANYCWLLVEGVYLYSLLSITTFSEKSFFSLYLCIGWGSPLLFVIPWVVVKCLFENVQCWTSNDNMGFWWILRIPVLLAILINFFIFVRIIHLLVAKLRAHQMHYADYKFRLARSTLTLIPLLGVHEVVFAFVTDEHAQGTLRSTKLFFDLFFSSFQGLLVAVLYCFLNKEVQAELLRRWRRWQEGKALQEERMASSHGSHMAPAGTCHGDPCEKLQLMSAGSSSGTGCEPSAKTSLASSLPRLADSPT

| EC50 [1] | clearance ([3]; IV) | half-life ([3]; IV) | Tmax ([3]; SC) | bioavailability ([3]; SC) | MRT ([3]; SC) | half-life ([3]; SC) | Compound | Mean body weight change [2] |
| --- | --- | --- | --- | --- | --- | --- | --- | --- |
| 0.43 nM | 0.185 mL/min/kg | 5 h | 4 h | 59% | 11.2 h | 5.1 h | CCCCCCCCCCCCCCCC(=O)N[C@@H](CCC(=O)NCCCC[C@H](NC(=O)[C@H](CO)NC(=O)[C@H](CC(=O)O)NC(=O)[C@H](CC(C)C)NC(=O)[C@H](Cc1ccc(O)cc1)NC(=O)[C@H](CCCCN)NC(=O)[C@H](CO)NC(=O)[C@H](Cc1ccc(O)cc1)NC(=O)[C@H](CC(=O)O)NC(=O)[C@H](CO)NC(=O)[C@@H](NC(=O)[C@H](Cc1ccccc1)NC(=O)[C@@H](NC(=O)CNC(=O)[C@H](CCC(N)=O)NC(=O)[C@H](CO)NC(=O)[C@@H](N)Cc1c[nH]cn1)[C@@H](C)O)[C@@H](C)O)C(=O)N[C@@H](C)C(=O)N[C@@H](C)C(=O)N[C@@H](Cc1c[nH]cn1)C(=O)N[C@@H](CC(=O)O)C(=O)N[C@@H](Cc1ccccc1)C(=O)N[C@H](C(=O)N[C@@H](CCC(=O)O)C(=O)N[C@@H](Cc1c[nH]c2ccccc12)C(=O)N[C@@H](CC(C)C)C(=O)N[C@@H](CC(C)C)C(=O)N[C@@H](CO)C(=O)N[C@@H](C)C(=O)O)C(C)C)C(=O)O [Compound 2, H-HSQGTFTSDYSKYLDS-K(Hexadecanoyl-isoGlu)-AAHDFVEWLLSA-OH] (H-HSQGTFTSDYSKYLDSK([γGlu-Palmitoyl])AAHDFVEWLLSA-OH) | −5.1% |
| 0.37 nM | 0.638 mL/min/kg | 0.9 h | 2 h | 34% | 4.7 h | 2.9 h | CCCCCCCCCCCCCCCC(=O)N[C@@H](CCC(=O)NCCCC[C@H](NC(=O)[C@H](CO)NC(=O)[C@H](CC(=O)O)NC(=O)[C@H](CC(C)C)NC(=O)[C@H](Cc1ccc(O)cc1)NC(=O)[C@H](CCCCN)NC(=O)[C@H](CO)NC(=O)[C@H](Cc1ccc(O)cc1)NC(=O)[C@H](CC(=O)O)NC(=O)[C@H](CO)NC(=O)[C@@H](NC(=O)[C@H](Cc1ccccc1)NC(=O)[C@@H](NC(=O)CNC(=O)[C@H](CCC(N)=O)NC(=O)[C@H](CO)NC(=O)[C@@H](N)Cc1c[nH]cn1)[C@@H](C)O)[C@@H](C)O)C(=O)N[C@@H](C)C(=O)N[C@@H](C)C(=O)N[C@@H](Cc1c[nH]cn1)C(=O)N[C@@H](CC(=O)O)C(=O)N[C@@H](Cc1ccccc1)C(=O)N[C@H](C(=O)N[C@@H](CCC(=O)O)C(=O)N[C@@H](Cc1c[nH]c2ccccc12)C(=O)N[C@@H](CC(C)C)C(=O)N[C@@H](CC(C)C)C(=O)N[C@@H](CCCNC(=N)N)C(=O)O)C(C)C)C(=O)O [Compound 9, H-HSQGTFTSDYSKYLDS-K(Hexadecanoyl-isoGlu)-AAHDFVEWLLR-OH] (H-HSQGTFTSDYSKYLDSK([γGlu-Palmitoyl])AAHDFVEWLLR-OH) | – |
| 0.04 nM | 0.355 mL/min/kg | 3 h | 2 h | 80% | 6.5 h | 3.7 h | CCCCCCCCCCCCCCCC(=O)N[C@@H](CCC(=O)NCCCC[C@H](NC(=O)[C@H](CCC(=O)O)NC(=O)[C@H](CC(=O)O)NC(=O)[C@H](CC(C)C)NC(=O)[C@H](Cc1ccc(O)cc1)NC(=O)[C@H](CCCCN)NC(=O)[C@H](CO)NC(=O)[C@H](Cc1ccc(O)cc1)NC(=O)[C@H](CC(=O)O)NC(=O)[C@H](CO)NC(=O)[C@@H](NC(=O)[C@H](Cc1ccccc1)NC(=O)[C@@H](NC(=O)CNC(=O)[C@H](CCC(N)=O)NC(=O)[C@H](CO)NC(=O)[C@@H](N)Cc1c[nH]cn1)[C@@H](C)O)[C@@H](C)O)C(=O)N[C@@H](C)C(=O)N[C@@H](C)C(=O)N[C@@H](Cc1c[nH]cn1)C(=O)N[C@@H](CCC(=O)O)C(=O)N[C@@H](Cc1ccccc1)C(=O)N[C@H](C(=O)N[C@@H](CCC(=O)O)C(=O)N[C@@H](Cc1c[nH]c2ccccc12)C(=O)N[C@@H](CC(C)C)C(=O)N[C@@H](CCC(=O)O)C(=O)N[C@@H](CO)C(=O)N[C@@H](C)C(N)=O)C(C)C)C(=O)O [Compound 10, H-HSQGTFTSDYSKYLDE-K(Hexadecanoyl-isoGlu)-AAHEFVEWLESA-NH2] (H-HSQGTFTSDYSKYLDEK([γGlu-Palmitoyl])AAHEFVEWLESA-NH2) | – |
| 0.24 nM | 0.225 mL/min/kg | 4.1 h | 6 h | 43% | 8.3 h | 4.3 h | CCCCCCCCCCCCCCCC(=O)N[C@@H](CCC(=O)NCCCC[C@H](NC(=O)[C@H](CO)NC(=O)[C@H](CC(=O)O)NC(=O)[C@H](CC(C)C)NC(=O)[C@H](Cc1ccc(O)cc1)NC(=O)[C@H](CCCNC(=N)N)NC(=O)[C@H](CO)NC(=O)[C@H](Cc1ccc(O)cc1)NC(=O)[C@H](CC(=O)O)NC(=O)[C@H](CO)NC(=O)[C@@H](NC(=O)[C@H](Cc1ccccc1)NC(=O)[C@@H](NC(=O)CNC(=O)[C@H](CCC(N)=O)NC(=O)[C@H](CO)NC(=O)[C@@H](N)Cc1c[nH]cn1)[C@@H](C)O)[C@@H](C)O)C(=O)N[C@@H](C)C(=O)N[C@@H](C)C(=O)N[C@@H](Cc1c[nH]cn1)C(=O)N[C@@H](CC(=O)O)C(=O)N[C@@H](Cc1ccccc1)C(=O)N[C@H](C(=O)N[C@@H](CCC(=O)O)C(=O)N[C@@H](Cc1c[nH]c2ccccc12)C(=O)N[C@@H](CC(C)C)C(=O)N[C@@H](CC(C)C)C(=O)N[C@@H](CO)C(=O)N[C@@H](C)C(N)=O)C(C)C)C(=O)O [Compound 12, H-HSQGTFTSDYSRYLDS-K(Hexadecanoyl-isoGlu)-AAHDFVEWLLSA-NH2] (H-HSQGTFTSDYSRYLDSK([γGlu-Palmitoyl])AAHDFVEWLLSA-NH2) | – |
| 0.67 nM | 0.148 mL/min/kg | 6.3 h | 4 h | 76% | 14.7 h | 8.6 h | CCCCCCCCCCCCCCCC(=O)N[C@@H](CCC(=O)NCCCC[C@H](NC(=O)[C@H](CO)NC(=O)[C@H](CC(=O)O)NC(=O)[C@H](CC(C)C)NC(=O)[C@H](Cc1ccc(O)cc1)NC(=O)[C@H](CCCCN)NC(=O)[C@H](CO)NC(=O)[C@H](Cc1ccc(O)cc1)NC(=O)[C@H](CC(=O)O)NC(=O)[C@H](CO)NC(=O)[C@@H](NC(=O)[C@H](Cc1ccccc1)NC(=O)[C@@H](NC(=O)CNC(=O)[C@H](CCC(N)=O)NC(=O)C(C)(C)NC(=O)[C@@H](N)Cc1c[nH]cn1)[C@@H](C)O)[C@@H](C)O)C(=O)N[C@@H](C)C(=O)N[C@@H](C)C(=O)N[C@@H](Cc1c[nH]cn1)C(=O)N[C@@H](CC(=O)O)C(=O)N[C@@H](Cc1ccccc1)C(=O)N[C@H](C(=O)N[C@@H](CCC(=O)O)C(=O)N[C@@H](Cc1c[nH]c2ccccc12)C(=O)N[C@@H](CC(C)C)C(=O)N[C@@H](CC(C)C)C(=O)N[C@@H](CO)C(=O)N[C@@H](C)C(=O)O)C(C)C)C(=O)O [Compound 13, H-H-Aib-QGTFTSDYSKYLDS-K(Hexadecanoyl-isoGlu)-AAHDFVEWLLSA-OH] | – |
